Experimental data reported in patent US20240368173A1, “TRICYCLIC GPR65 MODULATORS” (PATHIOS THERAPEUTICS LIMITED, priority 2021, published 2024).
pIC50: −log10 of the molar value.

These compounds were tested against human recombinant GPR65 (Homo sapiens, UniProt Q8IYL9) (assay: Human GPR65 cAMP HTRF antagonist assay). Settings: not given.
human recombinant GPR65, sequence (Q8IYL9 whole entry): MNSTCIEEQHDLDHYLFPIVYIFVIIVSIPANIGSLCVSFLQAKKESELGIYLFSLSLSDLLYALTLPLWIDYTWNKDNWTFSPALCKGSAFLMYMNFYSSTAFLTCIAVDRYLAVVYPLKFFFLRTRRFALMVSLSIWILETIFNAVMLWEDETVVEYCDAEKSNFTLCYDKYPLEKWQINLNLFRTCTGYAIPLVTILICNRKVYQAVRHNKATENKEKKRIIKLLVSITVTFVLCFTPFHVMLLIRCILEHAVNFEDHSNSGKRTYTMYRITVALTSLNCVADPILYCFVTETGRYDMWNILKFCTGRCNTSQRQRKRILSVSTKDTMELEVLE
Type: cell-based
How it was run: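 1321N1 astrocytoma cells stably expressing hrGPR65, with IBMX and EDTA, were preincubated with compound 30 min at room temperature, then acid-activated at assay pH 7.2 (control pH 7.9) for 30 min. cAMP read by HTRF (665/620 nm ratio); IC50 from 4-parameter fit normalised to high/low controls.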
For `O=C(Nc1cc(Cl)c(C(F)(F)F)cc1F)N1[C@@H]2CC[C@H]1[C@@H](F)c1c2ccnc1F` [Compound 296, (5R,8S,9S)-N-(5-Chloro-2-fluoro-4-(trifluoromethyl)phenyl)-1,9-difluoro-6,7,8,9-tetrahydro-5H-5,8-epiminocyclohepta[c]pyridine-10-carboxamide], the pIC50 was > 6.30. In the case of `O=C(Nc1cc(Br)c(Cl)cc1F)N1[C@H]2CC[C@@H]1c1n[nH]c(=O)cc1C2` [Compound 37, (6S,9R)-N-(5-Bromo-4-chloro-2-fluorophenyl)-3-oxo-3,5,6,7,8,9-hexahydro-2H-6,9-epiminocyclohepta[c]pyridazine-10-carboxamide], the pIC50 was > 6.30. For `CC(C)Oc1ccc(NC(=O)N2[C@H]3CC[C@@H]2c2ccnc(F)c2C3)cc1Cl` [Compound 70, (5R,8S)-N-(3-Chloro-4-isopropoxyphenyl)-1-fluoro-6,7,8,9-tetrahydro-5H-5,8-epiminocyclohepta[c]pyridine-10-carboxamide], the pIC50 was > 6.30. `O=C(Nc1ccc(C(F)(F)F)c(Br)c1)N1[C@@H]2CC[C@H]1c1n[nH]c(=O)cc1C2` [Compound 30, (6R,9S)-N-(3-Bromo-4-(trifluoromethyl)phenyl)-3-oxo-3,5,6,7,8,9-hexahydro-2H-6,9-epiminocyclohepta[c]pyridazine-10-carboxamide] was tested, and the pIC50 was < 5.30. With `O=C(Nc1ccc(-c2nnc(C(F)(F)F)s2)cc1)N1[C@H]2CC[C@@H]1c1ccnc(F)c1C2` [Compound 66, (5R,8S)-1-Fluoro-N-(4-(5-(trifluoromethyl)-1,3,4-thiadiazol-2-yl)phenyl)-6,7,8,9-tetrahydro-5H-5,8-epiminocyclohepta[c]pyridine-10-carboxamide] the pIC50 was > 6.30. In the case of `O=C(Nc1cc(Cl)c(-c2ccc(OCC(F)(F)F)nc2)cc1F)N1[C@H]2CC[C@@H]1c1n[nH]c(=O)cc1C2` [Compound 215, (6S,9R)-N-(5-Chloro-2-fluoro-4-(6-(2,2,2-trifluoroethoxy)pyridin-3-yl)phenyl)-3-oxo-3,5,6,7,8,9-hexahydro-2H-6,9-epiminocyclohepta[c]pyridazine-10-carboxamide], the pIC50 was > 6.30. In the case of `O=C(Nc1cc(Cl)c(-c2ccc(OC(F)F)nc2)cc1F)N1[C@H]2CC[C@@H]1c1n[nH]c(=O)cc1C2` [Compound 315, (6S,9R)-N-(5-Chloro-4-(6-(difluoromethoxy)pyridin-3-yl)-2-fluorophenyl)-3-oxo-3,5,6,7,8,9-hexahydro-2H-6,9-epiminocyclohepta[c]pyridazine-10-carboxamide], the pIC50 was > 6.30. In the case of `CS(=O)(=O)c1ccc(-c2cc(F)c(NC(=O)N3[C@H]4CC[C@@H]3c3n[nH]c(=O)cc3C4)cc2Cl)cc1` [Compound 131, (6S,9R)-N-(2-Chloro-5-fluoro-4′-(methylsulfonyl)-[1,1′-biphenyl]-4-yl)-3-oxo-3,5,6,7,8,9-hexahydro-2H-6,9-epiminocyclohepta[c]pyridazine-10-carboxamide], the pIC50 was > 6.30. For `COCCOc1ccc(-c2cc(F)c(NC(=O)N3[C@H]4CC[C@@H]3c3n[nH]c(=O)cc3C4)cc2Cl)cn1` [Compound 303, (6S,9R)-N-(5-Chloro-2-fluoro-4-(6-(2-methoxyethoxy)pyridin-3-yl)phenyl)-3-oxo-3,5,6,7,8,9-hexahydro-2H-6,9-epiminocyclohepta[c]pyridazine-10-carboxamide], the pIC50 was > 6.30. For `O=C(Nc1cc(Cl)c(-c2ccc(OC3COC3)nc2)cc1F)N1[C@H]2CC[C@@H]1c1n[nH]c(=O)cc1C2` [Compound 275, (6S,9R)-N-(5-Chloro-2-fluoro-4-(6-(oxetan-3-yloxy)pyridin-3-yl)phenyl)-3-oxo-3,5,6,7,8,9-hexahydro-2H-6,9-epiminocyclohepta[c]pyridazine-10-carboxamide], the pIC50 was > 6.30. With `O=C(Nc1cc(Cl)c(Br)cc1F)N1C2CCC1c1n[nH]c(=O)cc1C2` (racemic) [Compound 8, (±)-N-(4-Bromo-5-chloro-2-fluorophenyl)-3-oxo-3,5,6,7,8,9-hexahydro-2H-6,9-epiminocyclohepta[c]pyridazine-10-carboxamide] the pIC50 was > 6.30. In the case of `O=C(Nc1ccc(Cl)c(Cl)c1)N1C2CCC1c1n[nH]c(=O)cc1C2` (racemic) [Compound 75, (±)-N-(3,4-Dichlorophenyl)-3-oxo-3,5,6,7,8,9-hexahydro-2H-6,9-epiminocyclohepta[c]pyridazine-10-carboxamide], the pIC50 was > 6.30. With `O=C(Nc1cc(Cl)c(-c2ccc(OC3CCCC3)nc2)cc1F)N1[C@H]2CC[C@@H]1c1n[nH]c(=O)cc1C2` [Compound 336, (6S,9R)-N-(5-Chloro-4-(6-(cyclopentyloxy)pyridin-3-yl)-2-fluorophenyl)-3-oxo-3,5,6,7,8,9-hexahydro-2H-6,9-epiminocyclohepta[c]pyridazine-10-carboxamide] the pIC50 was > 6.30. `CCOc1ccc(-c2cc(F)c(NC(=O)N3[C@H]4CC[C@@H]3c3c[nH]c(=O)cc3C4)cc2Cl)cn1` [Compound 272, (6S,9R)-N-(5-Chloro-4-(6-ethoxypyridin-3-yl)-2-fluorophenyl)-3-oxo-3,5,6,7,8,9-hexahydro-2H-6,9-epiminocyclohepta[c]pyridine-10-carboxamide] was tested, and the pIC50 was > 6.30. For `O=C(Nc1cc(Cl)c(-c2ccc(OC3CCC3)nc2)cc1F)N1[C@H]2CC[C@@H]1c1c[nH]c(=O)cc1C2` [Compound 239, (6S,9R)-N-(5-Chloro-4-(6-cyclobutoxypyridin-3-yl)-2-fluorophenyl)-3-oxo-3,5,6,7,8,9-hexahydro-2H-6,9-epiminocyclohepta[c]pyridine-10-carboxamide], the pIC50 was > 6.30. In the case of `O=C(Nc1cc(Cl)c(-c2ccnc(OCC(F)(F)F)c2)cc1F)N1[C@H]2CC[C@@H]1c1n[nH]c(=O)cc1C2` [Compound 310, (6S,9R)-N-(5-Chloro-2-fluoro-4-(2-(2,2,2-trifluoroethoxy)pyridin-4-yl)phenyl)-3-oxo-3,5,6,7,8,9-hexahydro-2H-6,9-epiminocyclohepta[c]pyridazine-10-carboxamide], the pIC50 was > 6.30. With `COc1ccc(-c2cc(F)c(NC(=O)N3[C@H]4CC[C@@H]3c3n[nH]c(=O)cc3C4)cc2Cl)c(F)n1` [Compound 202, (6S,9R)-N-(5-Chloro-2-fluoro-4-(2-fluoro-6-methoxypyridin-3-yl)phenyl)-3-oxo-3,5,6,7,8,9-hexahydro-2H-6,9-epiminocyclohepta[c]pyridazine-10-carboxamide] the pIC50 was > 6.30. In the case of `O=C(Nc1cc(F)c(-c2ccc(C(F)(F)F)nc2)cc1F)N1[C@H]2CC[C@@H]1c1n[nH]c(=O)cc1C2` [Compound 286, (6S,9R)-N-(2,5-Difluoro-4-(6-(trifluoromethyl)pyridin-3-yl)phenyl)-3-oxo-3,5,6,7,8,9-hexahydro-2H-6,9-epiminocyclohepta[c]pyridazine-10-carboxamide], the pIC50 was > 6.30. For `O=C(Nc1cc(Cl)c(-c2ccc3nonc3c2)cc1F)N1[C@H]2CC[C@@H]1c1c[nH]c(=O)cc1C2` [Compound 167, (6S,9R)-N-(4-(Benzo[c][1,2,5]oxadiazol-5-yl)-5-chloro-2-fluorophenyl)-3-oxo-3,5,6,7,8,9-hexahydro-2H-6,9-epiminocyclohepta[c]pyridine-10-carboxamide], the pIC50 was > 6.30. For `CN(C)CCOc1ccc(-c2cc(F)c(NC(=O)N3[C@H]4CC[C@@H]3c3ccnc(F)c3C4)cc2Cl)cn1` [Compound 301, (5R,8S)-N-(5-Chloro-4-(6-(2-(dimethylamino)ethoxy)pyridin-3-yl)-2-fluorophenyl)-1-fluoro-6,7,8,9-tetrahydro-5H-5,8-epiminocyclohepta[c]pyridine-10-carboxamide], the pIC50 was > 6.30. With `CC(C)(O)c1ccc(NC(=O)N2[C@H]3CC[C@@H]2c2ccnc(F)c2C3)cc1Cl` [Compound 60, (5R,8S)—N-(3-Chloro-4-(2-hydroxypropan-2-yl)phenyl)-1-fluoro-6,7,8,9-tetrahydro-5H-5,8-epiminocyclohepta[c]pyridine-10-carboxamide] the pIC50 was > 6.30. `O=C(Nc1ccc(C2CC2)c(Cl)c1)N1[C@H]2CC[C@@H]1c1ccnc(F)c1C2` [Compound 59, (5R,8S)-N-(3-Chloro-4-cyclopropylphenyl)-1-fluoro-6,7,8,9-tetrahydro-5H-5,8-epiminocyclohepta[c]pyridine-10-carboxamide] was tested, and the pIC50 was > 6.30.

Same assay, conditions: 1321N1-hrGPR65 cells, cAMP HTRF, assay pH 7.2; read-out: hGPR65 IC50 (Activity of selected compounds according to the invention)
With `O=C(Nc1cc(Cl)c(-c2cncc(CO)c2)cc1F)N1[C@H]2CC[C@@H]1c1n[nH]c(=O)cc1C2` [Compound 128, (6S,9R)—N-(5-Chloro-2-fluoro-4-(5-(hydroxymethyl)pyridin-3-yl)phenyl)-3-oxo-3,5,6,7,8,9-hexahydro-2H-6,9-epiminocyclohepta[c]pyridazine-10-carboxamide] the pIC50 was 5.30 to 6.30. For `O=C1NCc2cc(-c3cc(F)c(NC(=O)N4[C@H]5CC[C@@H]4c4n[nH]c(=O)cc4C5)cc3Cl)ccc21` [Compound 142, (6S,9R)-N-(5-Chloro-2-fluoro-4-(1-oxoisoindolin-5-yl)phenyl)-3-oxo-3,5,6,7,8,9-hexahydro-2H-6,9-epiminocyclohepta[c]pyridazine-10-carboxamide], the pIC50 was < 5.30. Work on `Cc1n[nH]c(C)c1-c1cc(F)c(NC(=O)N2[C@H]3CC[C@@H]2c2n[nH]c(=O)cc2C3)cc1Cl` [Compound 149, (6S,9R)-N-(5-Chloro-4-(3,5-dimethyl-1H-pyrazol-4-yl)-2-fluorophenyl)-3-oxo-3,5,6,7,8,9-hexahydro-2H-6,9-epiminocyclohepta[c]pyridazine-10-carboxamide] yielded a pIC50 of 5.30 to 6.30. `COc1nccc2c1C[C@@H]1CC[C@H]2N1C(=O)Nc1cc(Cl)c(Cl)cc1F` [Compound 88, (5R,8S)-N-(4,5-Dichloro-2-fluorophenyl)-1-methoxy-6,7,8,9-tetrahydro-5H-5,8-epiminocyclohepta[c]pyridine-10-carboxamide] was tested, and the pIC50 was 5.30 to 6.30. `O=C(Nc1cc(Cl)c(-c2cnccn2)cc1F)N1[C@H]2CC[C@@H]1c1n[nH]c(=O)cc1C2` [Compound 271, (6S,9R)-N-(5-Chloro-2-fluoro-4-(pyrazin-2-yl)phenyl)-3-oxo-3,5,6,7,8,9-hexahydro-2H-6,9-epiminocyclohepta[c]pyridazine-10-carboxamide] gave a pIC50 of 5.30 to 6.30.
